Assay results: US10632121B2, “Platelet-derived growth factor receptor mutations and compositions and methods relating thereto” (MEMORIAL SLOAN KETTERING CANCER CENTER, priority 2014, dated 2020)
“And” between values parts separate entries of the source, which are not always exact repeats. Equal entries are not always repeated. “Also recorded” adds a separate entry of the source.

Legend:
[1] = system: TS543 GBM cells; assay: Western blot of pathway signaling, TS543; type: cell-based, human; settings: for PI3K/mTOR pathway inhibition (Western blot): TS543, four hour treatment
Description: (§1) Cell lysates for western blots were harvested in cell lysis buffer (Cell Signaling 9803) supplemented with a protease inhibitor cocktail (Calbiochem cocktail II 524625) and phosphatase inhibitor cocktail (Calbiochem cocktail III 524627). Lysates were sonicated, centrifuged, then quantified (Bio-Rad DC Protein Assay 500-0113, 500-0114, and 500-0115). Samples were normalized to one another, then a reducing loading buffer was added. Samples were run on SDS-PAGE gels and semi-dry transferred to nitrocellulose membranes.
(§2) SAR408 and SAR409 were provided by Sanofi. […] Antibodies for western blots were from Cell Signaling Technology with the following exceptions: actin (Sigma), total PDGFRA (Santa Cruz), and V5 epitope (Invitrogen). Western Blots were performed after four hours of drug treatment unless indicated otherwise. Electroluminescence was used to quantify phosphorylation of Akt and S6 ribosomal protein (FIG. 1B) (Meso Scale Discovery cat # K15100D-1 and cat # K150DGD-1). Cell Proliferation and Viability Assays were performed using a Beckman Coulter Vi-Cell XR Cell Viability Analyzer after five days of drug treatment unless indicated otherwise.

[2] = system: TS543 GBM cells (PDGFRA amplified); assay: Cell proliferation and viability (Vi-Cell, trypan blue), TS543; type: cell-based, human; settings: for cell death (% Trypan blue positive cells) / proliferation / growth inhibition: TS543, five day treatment
Description: For growth assays performed on non-adherent cell lines (primary human neurosphere lines and S5472 cells) cells were single cell disassociated with Accumax, then counted using the Beckman Coulter Vi-Cell XR Cell Viability Analyzer. Cells were plated in a 6 cm dish in triplicate for each vehicle or drug sample. After five days in culture, each plate was individually spun down, Accumax disassociated, and counted with the Vi-Cell. The Vi-Cell uses trypan blue-exclusion as a measure for viable cells, trypan blue positive cells were used to calculate the percentage of cell death in each sample. The average and standard error of the mean was graphed using GraphPad Prism 6.
as §2

[3] = target: mTOR (Homo sapiens, UniProt P42345); settings: cited from earlier work
[4] = system: H1703 human non-small cell lung cancer cells (PDGFRA amplified); assay: Cell proliferation and viability (Vi-Cell, trypan blue), H1703; type: cell-based; settings: H1703, five day treatment
Description: Growth assays performed on adherent cell lines were trypsanized, counted, and plated into 6 cm dishes. The next day media was removed, and replaced with reduced serum media (5% FBS) with drug or vehicle in triplicate for each concentration. After five days in culture, cells were analyzed in the same manner as non-adherent lines.
as §2

[5] = system: S5472 GBM cells (PDGFB driven); assay: Cell proliferation and viability (Vi-Cell, trypan blue), S5472; type: cell-based, mouse; settings: for cell death (% Trypan blue positive cells) / proliferation / growth inhibition: S5472, five day treatment
[6] = system: H1703 cells; assay: Western blot of pathway signaling, H1703; type: cell-based, human
Description: as §1, §2

[7] = target: PI3Kβ (Homo sapiens, UniProt P42338); settings: cited from earlier work
[8] = system: PI3K/mTOR pathway; assay: Clinical trial: IHC of PI3K/mTOR pathway markers in GBM tumor tissue; type: in vivo, human; settings: patients treated 10-28 days before surgery
Description: To evaluate pharmacodynamic effects in tumor tissue, immuno-histochemistry (IHC) was performed with phosphorylation-site specific antibodies against four PI3K/mTOR pathway components: Proline-Rich Akt Substrate of 40-kDa (PRAS40, threonine246), ribosomal protein S6 kinase 1 (S6K1, threonine 389), eukaryotic translation initiation factor 4E-binding protein 1 (4E-BP1, threonine 37/46), and S6 Ribosomal Protein (S6RP, serine 235/236) (FIG. 1D). For each marker staining of several thousand tumor cells was quantified and the staining intensity in the “on-treatment”-biopsy (Surgery 2) was compared with the staining intensity in the tumor sample collected from the same patient at diagnosis (Surgery 1). This “matched-pair” analysis included 19/21 evaluable patients (Table 3) who received at least one dose of study drug, had detectable phospho-S6RP in the pre-treatment sample (Surgery 1), and had tissue of sufficient quality collected on treatment (Surgery 2).
The design of the trial allowed comparison of the initial glioma (Surgery 1) in these patients to the recurrent glioma which was treated with drug before surgical resection (Surgery 2). Immunohistochemical staining (IHC) was performed on the samples and pathway inhibition was measured via pS6 Ser235/6, pS6K1 Thr389, p4E-BP1 Thr37/46, and pPRAS40 Thr246 (FIG. 1E, upper panel). Cellular proliferation was measured via Ki-67 IHC. […]
Immunohistochemical (IHC) staining of patient samples was performed on formalin-fixed paraffin-embedded (FFPE) tumor tissues collected at the initial surgery and recurrent tumor surgery. […] Immunoreactivity was detected using NovaRED Peroxidase Substrate kit (Vector Labs SK-4800) and sections were counterstained with hematoxylin.
To analyze pathway inhibition, three representative tumor images from each slide stained with phospho-proteins were taken, after determining the presence of tumor cells based on hematoxylin staining evaluation. […] The tumor to normal ratio was calculated by dividing the average of the tumor images by the average of the normal tissue image. […]

[9] = Clinical trial: safety, adverse events (CTCAE v4.0)
[10] = system: recurrent glioblastoma; assay: Clinical trial: time to progression and tumor response; type: in vivo, human
[11] = Clinical trial: primary reason for discontinuation from study treatment; type: in vivo, human; settings: SAR408 200 mg once daily (N = 6)
Source text: All 21 patients discontinued treatment prior to receiving 1 year of postsurgery treatment. Time to tumor progression (TTP) for all patients is presented FIG. 2A.

[12] = system: panel of 130 other kinases; settings: Cloughesy et al., 2013; cited from earlier work
[13] = target: PI3Kα (Homo sapiens, UniProt P42336); settings: cited from earlier work
[14] = target: PI3Kγ (Homo sapiens, UniProt P48736); settings: cited from earlier work
[15] = system: glioblastoma tumor cells; assay: Clinical trial: Ki-67 IHC tumor cell proliferation; type: in vivo, human
Description: The design of the trial allowed comparison of the initial glioma (Surgery 1) in these patients to the recurrent glioma which was treated with drug before surgical resection (Surgery 2). Immunohistochemical staining (IHC) was performed on the samples and pathway inhibition was measured via pS6 Ser235/6, pS6K1 Thr389, p4E-BP1 Thr37/46, and pPRAS40 Thr246 (FIG. 1E, upper panel). Cellular proliferation was measured via Ki-67 IHC. These IHC measurements were compared to one another and reported as a percentage decrease or increase of Surgery2/Surgery 1. Samples which had reduction of all four phospho-protein measurements in Surgery 2 also had the greatest relative decreases in cellular proliferation (FIG. 1E, lower panel). Samples which had no inhibition of any pharmacodynamic biomarker or inhibition of only one pharmacodynamic biomarker were most likely to see a relative increase in proliferation.
To compare the relative change in cellular proliferation in the three drug arms and a drug naïve population, a control population was formed of patients who had not been treated with any PI3K inhibitor and surgical samples available from two surgical resections and compared their relative proliferation via Ki-67 IHC (FIG. 12A). This control group was compared with the three arms of the trial. […] There was no statistically significant change in proliferation between the control group and the other arms of the trial.
To determine the Ki-67 labeling index, slides were analyzed as with the phospho-proteins, and the number of positively stained and total number of cells was determined for each image. The percentage of Ki-67 positive cells was calculated for each image, then the three images were averaged.

[16] = target: PI3Kδ (Homo sapiens, UniProt O00329); settings: cited from earlier work
[17] = SAR408 200 mg once daily (N = 6)

PI3Kα, sequence (P42336 whole entry): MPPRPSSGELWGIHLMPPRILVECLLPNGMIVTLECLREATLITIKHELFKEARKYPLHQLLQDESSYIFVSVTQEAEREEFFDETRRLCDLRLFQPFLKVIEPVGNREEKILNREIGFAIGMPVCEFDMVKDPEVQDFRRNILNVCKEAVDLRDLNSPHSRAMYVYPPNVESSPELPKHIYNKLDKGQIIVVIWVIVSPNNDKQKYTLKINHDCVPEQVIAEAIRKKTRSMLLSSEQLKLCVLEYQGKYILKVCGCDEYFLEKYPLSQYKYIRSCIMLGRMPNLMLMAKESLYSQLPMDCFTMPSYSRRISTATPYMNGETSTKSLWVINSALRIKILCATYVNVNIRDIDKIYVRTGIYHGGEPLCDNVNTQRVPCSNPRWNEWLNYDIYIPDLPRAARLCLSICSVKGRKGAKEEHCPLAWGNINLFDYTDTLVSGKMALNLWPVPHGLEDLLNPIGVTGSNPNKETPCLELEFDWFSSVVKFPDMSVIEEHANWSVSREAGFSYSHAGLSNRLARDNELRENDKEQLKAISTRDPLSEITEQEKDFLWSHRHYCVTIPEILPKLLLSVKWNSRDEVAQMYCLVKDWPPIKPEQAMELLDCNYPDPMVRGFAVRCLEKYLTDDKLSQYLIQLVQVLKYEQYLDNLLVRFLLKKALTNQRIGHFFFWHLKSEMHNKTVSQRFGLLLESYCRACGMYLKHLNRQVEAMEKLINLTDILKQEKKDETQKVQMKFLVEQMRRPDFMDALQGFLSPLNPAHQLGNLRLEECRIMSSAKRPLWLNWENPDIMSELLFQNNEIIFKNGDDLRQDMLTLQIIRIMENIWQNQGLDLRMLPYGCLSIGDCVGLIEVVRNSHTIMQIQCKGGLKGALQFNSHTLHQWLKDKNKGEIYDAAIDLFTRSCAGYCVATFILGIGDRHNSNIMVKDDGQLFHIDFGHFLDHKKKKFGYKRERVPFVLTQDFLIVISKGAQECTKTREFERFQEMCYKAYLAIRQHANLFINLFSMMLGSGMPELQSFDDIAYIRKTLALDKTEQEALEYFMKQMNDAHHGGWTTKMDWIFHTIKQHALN
PI3Kα, sequence (P27986 whole entry partner): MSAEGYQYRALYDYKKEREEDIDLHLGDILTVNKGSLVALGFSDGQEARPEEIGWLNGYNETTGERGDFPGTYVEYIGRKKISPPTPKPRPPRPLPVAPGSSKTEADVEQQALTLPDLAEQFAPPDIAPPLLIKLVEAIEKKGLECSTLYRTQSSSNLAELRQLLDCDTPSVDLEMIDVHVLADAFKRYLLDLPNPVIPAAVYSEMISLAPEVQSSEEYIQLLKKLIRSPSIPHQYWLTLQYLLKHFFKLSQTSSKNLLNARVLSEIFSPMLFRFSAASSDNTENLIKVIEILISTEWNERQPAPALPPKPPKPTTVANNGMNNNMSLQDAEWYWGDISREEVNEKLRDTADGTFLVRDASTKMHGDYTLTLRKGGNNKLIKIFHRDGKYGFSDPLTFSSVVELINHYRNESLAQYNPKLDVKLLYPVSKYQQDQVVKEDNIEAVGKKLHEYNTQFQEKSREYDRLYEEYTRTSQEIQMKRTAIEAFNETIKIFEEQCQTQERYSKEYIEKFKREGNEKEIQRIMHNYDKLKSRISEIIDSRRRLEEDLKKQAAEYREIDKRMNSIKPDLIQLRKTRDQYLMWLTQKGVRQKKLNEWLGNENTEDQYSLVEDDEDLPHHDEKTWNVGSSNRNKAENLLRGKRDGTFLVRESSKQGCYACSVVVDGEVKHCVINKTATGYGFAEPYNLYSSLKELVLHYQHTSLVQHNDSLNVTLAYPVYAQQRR
PI3Kγ, sequence (P48736 whole entry): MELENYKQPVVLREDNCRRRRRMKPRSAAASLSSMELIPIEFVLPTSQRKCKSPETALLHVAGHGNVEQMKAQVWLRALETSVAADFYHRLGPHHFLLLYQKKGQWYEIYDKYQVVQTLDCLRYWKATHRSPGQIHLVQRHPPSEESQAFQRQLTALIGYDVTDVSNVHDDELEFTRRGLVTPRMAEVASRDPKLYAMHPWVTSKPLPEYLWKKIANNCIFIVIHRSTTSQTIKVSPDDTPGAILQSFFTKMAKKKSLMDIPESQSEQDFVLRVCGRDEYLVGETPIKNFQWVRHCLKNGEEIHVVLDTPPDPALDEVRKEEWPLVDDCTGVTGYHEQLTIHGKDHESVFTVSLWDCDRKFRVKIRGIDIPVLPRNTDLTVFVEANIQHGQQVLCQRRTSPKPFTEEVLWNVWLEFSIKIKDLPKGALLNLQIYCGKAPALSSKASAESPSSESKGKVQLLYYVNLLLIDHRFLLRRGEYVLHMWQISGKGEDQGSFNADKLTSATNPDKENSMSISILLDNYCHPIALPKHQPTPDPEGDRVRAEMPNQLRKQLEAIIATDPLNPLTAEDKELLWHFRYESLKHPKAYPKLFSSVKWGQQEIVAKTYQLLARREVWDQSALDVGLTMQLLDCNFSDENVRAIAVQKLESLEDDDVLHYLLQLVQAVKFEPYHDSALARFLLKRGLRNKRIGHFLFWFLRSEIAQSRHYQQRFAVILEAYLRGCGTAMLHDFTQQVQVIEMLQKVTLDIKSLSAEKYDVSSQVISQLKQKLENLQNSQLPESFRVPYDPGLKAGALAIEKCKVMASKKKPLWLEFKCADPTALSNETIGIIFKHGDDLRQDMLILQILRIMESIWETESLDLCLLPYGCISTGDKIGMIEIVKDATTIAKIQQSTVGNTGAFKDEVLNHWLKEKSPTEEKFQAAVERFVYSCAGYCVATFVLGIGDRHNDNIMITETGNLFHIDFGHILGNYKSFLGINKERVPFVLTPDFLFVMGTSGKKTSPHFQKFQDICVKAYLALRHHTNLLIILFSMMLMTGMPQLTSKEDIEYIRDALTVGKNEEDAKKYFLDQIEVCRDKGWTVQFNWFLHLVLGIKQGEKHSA
PI3Kδ, sequence (O00329 whole entry): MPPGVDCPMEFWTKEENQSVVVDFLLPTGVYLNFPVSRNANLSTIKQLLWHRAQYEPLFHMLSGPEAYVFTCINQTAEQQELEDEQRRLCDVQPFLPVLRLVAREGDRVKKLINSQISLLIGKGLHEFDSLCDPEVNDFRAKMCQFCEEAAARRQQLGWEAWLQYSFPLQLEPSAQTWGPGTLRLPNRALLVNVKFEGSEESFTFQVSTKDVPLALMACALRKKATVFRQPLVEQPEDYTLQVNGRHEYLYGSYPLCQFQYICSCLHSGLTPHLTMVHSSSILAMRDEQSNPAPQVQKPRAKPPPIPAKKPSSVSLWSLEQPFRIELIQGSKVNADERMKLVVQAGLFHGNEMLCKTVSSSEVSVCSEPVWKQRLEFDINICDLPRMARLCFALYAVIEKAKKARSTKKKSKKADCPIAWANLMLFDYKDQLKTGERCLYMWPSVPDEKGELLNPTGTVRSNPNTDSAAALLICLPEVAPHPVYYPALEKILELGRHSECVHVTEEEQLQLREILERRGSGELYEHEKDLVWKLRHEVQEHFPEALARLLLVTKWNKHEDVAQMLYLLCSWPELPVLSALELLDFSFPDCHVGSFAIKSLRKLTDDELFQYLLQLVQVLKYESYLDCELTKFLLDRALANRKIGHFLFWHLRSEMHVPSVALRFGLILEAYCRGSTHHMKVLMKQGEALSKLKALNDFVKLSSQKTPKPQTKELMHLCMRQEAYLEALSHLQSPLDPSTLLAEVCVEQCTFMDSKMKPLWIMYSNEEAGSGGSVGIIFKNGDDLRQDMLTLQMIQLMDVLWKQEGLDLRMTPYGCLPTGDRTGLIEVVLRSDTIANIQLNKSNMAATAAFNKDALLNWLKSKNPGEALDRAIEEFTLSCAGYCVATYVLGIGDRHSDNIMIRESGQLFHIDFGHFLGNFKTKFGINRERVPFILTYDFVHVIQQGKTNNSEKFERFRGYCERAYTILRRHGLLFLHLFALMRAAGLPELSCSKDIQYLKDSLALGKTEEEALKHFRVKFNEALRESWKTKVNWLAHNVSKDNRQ
PI3Kδ, sequence (P27986 whole entry partner): as the sequence (P27986 whole entry partner) above
PI3Kβ, sequence (P42338 whole entry): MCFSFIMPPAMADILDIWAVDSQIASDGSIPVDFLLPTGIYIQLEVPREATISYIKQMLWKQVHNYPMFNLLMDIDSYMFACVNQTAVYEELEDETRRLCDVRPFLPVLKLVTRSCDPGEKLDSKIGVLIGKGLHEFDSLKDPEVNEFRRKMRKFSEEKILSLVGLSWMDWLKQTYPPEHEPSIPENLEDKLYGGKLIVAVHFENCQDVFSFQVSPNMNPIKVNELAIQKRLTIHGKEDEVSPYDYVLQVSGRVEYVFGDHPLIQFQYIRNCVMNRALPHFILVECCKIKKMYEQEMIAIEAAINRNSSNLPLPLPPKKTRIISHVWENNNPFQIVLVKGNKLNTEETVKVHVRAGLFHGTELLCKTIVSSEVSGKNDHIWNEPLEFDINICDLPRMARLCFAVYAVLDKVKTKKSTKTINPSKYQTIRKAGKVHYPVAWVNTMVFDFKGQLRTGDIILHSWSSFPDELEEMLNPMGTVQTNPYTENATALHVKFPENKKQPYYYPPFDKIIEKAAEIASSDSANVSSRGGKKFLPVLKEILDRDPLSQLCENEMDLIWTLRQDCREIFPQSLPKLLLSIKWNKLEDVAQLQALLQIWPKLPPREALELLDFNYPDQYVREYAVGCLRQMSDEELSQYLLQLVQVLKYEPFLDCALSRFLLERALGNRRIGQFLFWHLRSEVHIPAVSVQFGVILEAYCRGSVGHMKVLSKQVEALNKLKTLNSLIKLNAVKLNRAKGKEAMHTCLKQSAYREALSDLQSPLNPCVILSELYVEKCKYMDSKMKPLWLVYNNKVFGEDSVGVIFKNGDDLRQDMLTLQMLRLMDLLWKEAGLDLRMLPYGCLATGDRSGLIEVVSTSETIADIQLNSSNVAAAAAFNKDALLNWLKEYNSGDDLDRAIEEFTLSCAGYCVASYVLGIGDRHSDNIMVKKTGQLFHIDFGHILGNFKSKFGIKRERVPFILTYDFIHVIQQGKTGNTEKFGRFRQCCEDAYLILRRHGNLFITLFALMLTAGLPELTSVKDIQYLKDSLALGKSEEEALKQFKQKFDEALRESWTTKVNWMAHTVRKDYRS
PI3Kβ, sequence (P27986 whole entry partner): as the sequence (P27986 whole entry partner) above

Cc1nc(NC(=O)N2CCC[C@H]2C(N)=O)sc1-c1ccnc(C(C)(C)C(F)(F)F)c1 [BYL719]
PI3K/mTOR pathway inhibition (Western blot) [1]: inhibited
cell death (% Trypan blue positive cells) [2]: induction of cell death was observed
IC50 [3]: > 9100 nM

CS(=O)(=O)N1CCN(Cc2cc3nc(-c4cccc5[nH]ncc45)nc(N4CCOCC4)c3s2)CC1 [GDC-0941]
PI3K/mTOR pathway inhibition (Western blot) [1]: inhibited
cell death (% Trypan blue positive cells) [2]: induction of cell death was observed

Cc1c(CN2CCN(C(=O)[C@H](C)O)CC2)sc2c(N3CCOCC3)nc(-c3cnc(N)nc3)nc12 [GDC-0980]
cell death (% Trypan blue positive cells) [4]: induced dose dependent cell death; also recorded: induction of cell death
proliferation / growth inhibition [4]: inhibition of proliferation
cell death (% Trypan blue positive cells) [2]: induced dose dependent cell death; also recorded: induction of cell death
proliferation / growth inhibition [2]: inhibition of proliferation
cell death (% Trypan blue positive cells) [5]: induction of cell death; also recorded: induced cell death
proliferation / growth inhibition [5]: inhibition of proliferation

COc1ccc(-c2ccc3c(N4CCOCC4)nc(N4C[C@@H](C)O[C@@H](C)C4)nc3n2)cc1CO [KU-0063794]
cell death (% Trypan blue positive cells) [4]: no induction of cell death
proliferation / growth inhibition [4]: proliferation arrest
TORC1 signaling (pS6 Ser235/6 and Ser240/4) ([6]; H1703, four hours): inhibited
TORC2 functions (pAkt Ser473) ([6]; H1703, four hours): inhibited
cell death (% Trypan blue positive cells) [2]: no induction of cell death; also recorded: not sufficient to induce cell death
proliferation / growth inhibition [2]: proliferation arrest; also recorded: markedly impaired tumor cell proliferation
cell death (% Trypan blue positive cells) [5]: no induction of cell death; also recorded: not sufficient to induce cell death
proliferation / growth inhibition [5]: proliferation arrest; also recorded: markedly impaired tumor cell proliferation

NC1(c2ccc(-c3nc4ccn5c(=O)[nH]nc5c4cc3-c3ccccc3)cc2)CCC1 [MK-2206]
cell death induction, combination of Akt and mTOR inhibition ([2]; TS543, MK-2206 combined with 10 nM rapamycin, five days): marked increase in cell death induction
cell death (% Trypan blue positive cells) [2]: dose-dependent cell death
cell death (% Trypan blue positive cells) [5]: dose-dependent cell death
cell death induction in cells expressing drug-resistant AKT1 allele (W80-AKT1) ([5]; S5472 expressing AKT1 mutated at tryptophan 80): completely protected

COc1ccc(Cl)c(Nc2nc3ccccc3nc2NS(=O)(=O)c2cccc(NC(=O)C(C)(C)N)c2)c1 [SAR408, pilaralisib]
IC50 [7]: 617 nM
PI3K/mTOR pathway inhibition in tumor, Surgery 2 vs Surgery 1 [8]: Inhibition of the PI3K/mTOR Pathway
Patients with any Grade 3/4 TEAE [9, 17]: 2 n (%) and 2 (33.3) n (%)
Patients with any Grade 3/4 treatment-emergent SAE [9, 17]: 1 (16.7) n (%)
Patients with any TEAE [9, 17]: 6 (100.0) n (%)
Patients with any TEAE leading to death [9, 17]: 0 n (%)
Patients with any TEAE leading to dose reduction or interruption [9, 17]: 0 n (%)
Patients with any TEAE leading to permanent treatment discontinuation [9, 17]: 0 n (%)
Patients with any related Grade 3/4 TEAE [9, 17]: 0 n (%)
Patients with any related Grade 3/4 treatment-emergent SAE [9, 17]: 0 n (%)
Patients with any related TEAE [9, 17]: 3 n (%) and 3 (50.0) n (%)
Patients with any related treatment-emergent SAE [9, 17]: 0 n (%)
Patients with any treatment emergent SAE [9, 17]: 1 n (%) and 1 (16.7) n (%)
TEAEs of ALT increased, AST increased, blood bilirubin increased or gamma-glutamyltransferase increased ([9]; SAR408 once daily cohort): No TEAEs
drug-related TEAE: fatigue ([9]; all cohorts of the drug pooled): 2 patients
tolerability of postoperative treatment ([9]; seventeen patients who resumed drug postoperatively): tolerated it well
TTP (time to progression), individual patients ([10]; SAR408 200 mg/QD): 6.14 wks (2×) and 18.29 wks and 10.14 wks and 6 wks and 4.57 wks
median time to progression ([10]; SAR245408 arm): 6.14 weeks
range of time to progression ([10]; SAR245408 arm): 4.57-18.29 weeks
Discontinuation: Adverse Event or SAE unrelated to disease progression [11]: 0 n (%)
Discontinuation: Clinical disease progression per principal investigator [11]: 0 n (%)
Discontinuation: Disease progression per modified RANO [11]: 6 (100.0) n (%)
inhibition of a panel of 130 other kinases [12]: do not significantly inhibit
IC50 [13]: 48 nM
IC50 [14]: 260 nM
change in proliferation (Ki-67) compared to untreated control population ([15]; 200 mg/QD SAR245408 arm): not significantly different
cellular proliferation in tumor, Surgery 2 vs Surgery 1 ([15]; patients treated 10-28 days before surgery): Reduced Cellular Proliferation
IC50 [16]: 10 nM
IC50 [3]: > 15000 nM

Cc1ccc(NC(=O)c2ccc(CN3CCN(C)CC3)cc2)cc1Nc1nccc(-c2cccnc2)n1 [imatinib]
PDGFRA and downstream signaling (Western blot) ([1]; TS543): inhibits PDGFRA and downstream signaling
PDGFRA and downstream signaling (Western blot) ([6]; H1703, 4 hours): robust inhibition of PGDFRA and downstream signaling
cell death (% Trypan blue positive cells) [2]: robust induction of cell death
cell death (% Trypan blue positive cells) [5]: will die
